Experimental data as given in article PMC9986241 (Signal Transduction and Targeted Therapy, 2023).
pKd: −log10 of the molar value. One block for each compound: values may come before it.

Key:
DDR2(h) = biological target: T1, DDR2(h) (Homo sapiens, UniProt Q16832); experiment: KinaseProfiler enzyme profiling; type: biochemical
T1 construct: purchased Eurofins KinaseProfiler
In short: (§1)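 Two replicate runs; 70 kinases; in vitro; erianin held at 100 nM throughout the screen.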

HIPK2(h) = biological target: T2, HIPK2(h) (Homo sapiens, UniProt Q9H2X6); experiment: KinaseProfiler enzyme profiling; type: biochemical
T2 construct: purchased Eurofins KinaseProfiler
In short: as §1

CK1γ2(h) = biological target: T3, CK1γ2(h) (Homo sapiens, UniProt P78368); experiment: KinaseProfiler enzyme profiling; type: biochemical
T3 construct: purchased Eurofins KinaseProfiler
In short: as §1

CK1γ3(h) = biological target: T4, CK1γ3(h) (Homo sapiens, UniProt Q9Y6M4); experiment: KinaseProfiler enzyme profiling; type: biochemical
T4 construct: purchased Eurofins KinaseProfiler
In short: as §1

BRK(h) = biological target: T5, BRK(h) (Homo sapiens, UniProt Q13882); experiment: KinaseProfiler enzyme profiling; type: biochemical
T5 construct: purchased Eurofins KinaseProfiler
In short: as §1

MKK4(m) = biological target: T6, MKK4(m) (Mus musculus, UniProt P47809); experiment: KinaseProfiler enzyme profiling; type: biochemical
T6 construct: purchased Eurofins KinaseProfiler
In short: as §1

MELK(h) = biological target: T7, MELK(h) (Homo sapiens, UniProt Q14680); experiment: KinaseProfiler enzyme profiling; type: biochemical
T7 construct: purchased Eurofins KinaseProfiler
In short: as §1

MKK7β(h) = biological target: T8, MKK7β(h) (Homo sapiens, UniProt O14733); experiment: KinaseProfiler enzyme profiling; type: biochemical
T8 construct: purchased Eurofins KinaseProfiler
In short: as §1

FGFR4(h) = biological target: T9, FGFR4(h) (Homo sapiens, UniProt P22455); experiment: KinaseProfiler enzyme profiling; type: biochemical
T9 construct: purchased Eurofins KinaseProfiler
In short: as §1

FGFR3(h) = biological target: T10, FGFR3(h) (Homo sapiens, UniProt P22607); experiment: KinaseProfiler enzyme profiling; type: biochemical
T10 construct: purchased Eurofins KinaseProfiler
In short: as §1

EGFR(L858R)(h) = biological target: T11, EGFR(L858R)(h) (Homo sapiens, UniProt P00533, L858R); experiment: KinaseProfiler enzyme profiling; type: biochemical
T11 construct: purchased Eurofins KinaseProfiler
In short: as §1

DAPK1(h) = biological target: T12, DAPK1(h) (Homo sapiens, UniProt P53355); experiment: KinaseProfiler enzyme profiling; type: biochemical
T12 construct: purchased Eurofins KinaseProfiler
In short: as §1

ARK5(h) = biological target: T13, ARK5(h) (Homo sapiens, UniProt O60285); experiment: KinaseProfiler enzyme profiling; type: biochemical
T13 construct: purchased Eurofins KinaseProfiler
In short: as §1

CDK7/cyclinH(h) = biological target: T14, CDK7/cyclinH(h) (Homo sapiens, UniProt P50613); experiment: KinaseProfiler enzyme profiling; type: biochemical
T14 construct: purchased Eurofins KinaseProfiler
In short: as §1

Mer(h) = biological target: T15, Mer(h) (Homo sapiens, UniProt Q12866); experiment: KinaseProfiler enzyme profiling; type: biochemical
T15 construct: purchased Eurofins KinaseProfiler
In short: as §1

NIM1(h) = biological target: T16, NIM1(h) (Homo sapiens, UniProt Q8IY84); experiment: KinaseProfiler enzyme profiling; type: biochemical
T16 construct: purchased Eurofins KinaseProfiler
In short: as §1

EphB2(h) = biological target: T17, EphB2(h) (Homo sapiens, UniProt P29323); experiment: KinaseProfiler enzyme profiling; type: biochemical
T17 construct: purchased Eurofins KinaseProfiler
In short: as §1

MEK1 full length = MEK1 full length (Homo sapiens, UniProt Q02750); experiment: SPR; type: binding; settings: CM5 chip, Biacore T200, read-out: equilibrium dissociation constant (KD)
Method: 293 T cells were transfected with plasmids of pcDNA3.1-3×Flag-C-MAP2K1/MAP2K1 (K97A, M146A), MAP2K2/MAP2K1 (K101A, M150A), or CRAF/CRAF (K375A). […]
After incubation, a series concentration of erianin (RAF inhibitor LY3009120 and MEK inhibitor cobimetinib were simultaneously added as positive control) flowed through the protein-CM5 system. The binding was tested and analyzed using Biacore T200 instrument.

Rsk2(h) = biological target: T18, Rsk2(h) (Homo sapiens, UniProt P51812); experiment: KinaseProfiler enzyme profiling; type: biochemical
T18 construct: purchased Eurofins KinaseProfiler
In short: (§2)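 Single-point in vitro screen: erianin 100 nM, 70-kinase panel, n = 2.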

Pim-2(h) = biological target: T19, Pim-2(h) (Homo sapiens, UniProt Q9P1W9); experiment: KinaseProfiler enzyme profiling; type: biochemical; settings: 100 nM
T19 construct: purchased Eurofins KinaseProfiler
In short: as §1

Fgr(h) = biological target: T20, Fgr(h) (Homo sapiens, UniProt P09769); experiment: KinaseProfiler enzyme profiling; type: biochemical; settings: 100 nM
T20 construct: purchased Eurofins KinaseProfiler
In short: as §1

EphB3(h) = biological target: T21, EphB3(h) (Homo sapiens, UniProt P54753); experiment: KinaseProfiler enzyme profiling; type: biochemical; settings: 100 nM
T21 construct: purchased Eurofins KinaseProfiler
In short: as §1

Rsk1(h) = biological target: T22, Rsk1(h) (Homo sapiens, UniProt Q15418); experiment: KinaseProfiler enzyme profiling; type: biochemical
T22 construct: purchased Eurofins KinaseProfiler
In short: as §2

ZIPK(h) = biological target: T23, ZIPK(h) (Homo sapiens, UniProt O43293); experiment: KinaseProfiler enzyme profiling; type: biochemical; settings: 100 nM
T23 construct: purchased Eurofins KinaseProfiler
In short: as §1

MEK2(h) = biological target: T24, MEK2(h) (Homo sapiens, UniProt P36507); experiment: KinaseProfiler enzyme profiling; type: biochemical
T24 construct: purchased Eurofins KinaseProfiler
In short: as §2

CaMKIIδ(h) = biological target: T25, CaMKIIδ(h) (Homo sapiens, UniProt Q13557); experiment: KinaseProfiler enzyme profiling; type: biochemical; settings: 100 nM
T25 construct: purchased Eurofins KinaseProfiler
In short: as §1

Rsk3(h) = biological target: T26, Rsk3(h) (Homo sapiens, UniProt Q15349); experiment: KinaseProfiler enzyme profiling; type: biochemical; settings: 100 nM
T26 construct: purchased Eurofins KinaseProfiler
In short: as §1

EphA4(h) = biological target: T27, EphA4(h) (Homo sapiens, UniProt P54764); experiment: KinaseProfiler enzyme profiling; type: biochemical; settings: 100 nM
T27 construct: purchased Eurofins KinaseProfiler
In short: as §1

TAO2(h) = biological target: T28, TAO2(h) (Homo sapiens, UniProt Q9UL54); experiment: KinaseProfiler enzyme profiling; type: biochemical
T28 construct: purchased Eurofins KinaseProfiler
In short: as §1

MST1(h) = biological target: T29, MST1(h) (Homo sapiens, UniProt Q13043); experiment: KinaseProfiler enzyme profiling; type: biochemical
T29 construct: purchased Eurofins KinaseProfiler
In short: as §1

CDK18/cyclinY(h) = biological target: T30, CDK18/cyclinY(h) (Homo sapiens, UniProt Q07002); experiment: KinaseProfiler enzyme profiling; type: biochemical
T30 construct: purchased Eurofins KinaseProfiler
In short: as §1

MST2(h) = biological target: T31, MST2(h) (Homo sapiens, UniProt Q13188); experiment: KinaseProfiler enzyme profiling; type: biochemical
T31 construct: purchased Eurofins KinaseProfiler
In short: as §1

NEK1(h) = biological target: T32, NEK1(h) (Homo sapiens, UniProt Q96PY6); experiment: KinaseProfiler enzyme profiling; type: biochemical
T32 construct: purchased Eurofins KinaseProfiler
In short: as §1

TAO1(h) = biological target: T33, TAO1(h) (Homo sapiens, UniProt Q7L7X3); experiment: KinaseProfiler enzyme profiling; type: biochemical
T33 construct: purchased Eurofins KinaseProfiler
In short: as §1

CDK12/cyclinK(h) = biological target: T34, CDK12/cyclinK(h) (Homo sapiens, UniProt Q9NYV4); experiment: KinaseProfiler enzyme profiling; type: biochemical
T34 construct: purchased Eurofins KinaseProfiler
In short: as §1

PAK5(h) = biological target: T35, PAK5(h) (Homo sapiens, UniProt Q9P286); experiment: KinaseProfiler enzyme profiling; type: biochemical
T35 construct: purchased Eurofins KinaseProfiler
In short: as §1

ATR/ATRIP(h) = biological target: T36, ATR/ATRIP(h) (Homo sapiens, UniProt Q13535); experiment: KinaseProfiler enzyme profiling; type: biochemical
T36 construct: purchased Eurofins KinaseProfiler
In short: as §1

MEK1 full length, sequence (Q02750 whole entry): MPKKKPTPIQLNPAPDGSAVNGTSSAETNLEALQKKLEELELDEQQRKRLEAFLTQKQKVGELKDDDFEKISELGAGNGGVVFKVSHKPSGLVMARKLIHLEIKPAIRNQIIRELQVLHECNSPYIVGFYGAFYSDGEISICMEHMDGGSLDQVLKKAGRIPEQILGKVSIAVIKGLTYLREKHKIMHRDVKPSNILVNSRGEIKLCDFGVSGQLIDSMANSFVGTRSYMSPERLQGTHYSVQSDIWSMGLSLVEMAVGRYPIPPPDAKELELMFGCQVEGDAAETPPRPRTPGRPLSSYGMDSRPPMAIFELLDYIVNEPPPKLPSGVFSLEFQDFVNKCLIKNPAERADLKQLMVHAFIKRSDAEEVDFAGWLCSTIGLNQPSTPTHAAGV
T35 sequence (Q9P286 whole entry): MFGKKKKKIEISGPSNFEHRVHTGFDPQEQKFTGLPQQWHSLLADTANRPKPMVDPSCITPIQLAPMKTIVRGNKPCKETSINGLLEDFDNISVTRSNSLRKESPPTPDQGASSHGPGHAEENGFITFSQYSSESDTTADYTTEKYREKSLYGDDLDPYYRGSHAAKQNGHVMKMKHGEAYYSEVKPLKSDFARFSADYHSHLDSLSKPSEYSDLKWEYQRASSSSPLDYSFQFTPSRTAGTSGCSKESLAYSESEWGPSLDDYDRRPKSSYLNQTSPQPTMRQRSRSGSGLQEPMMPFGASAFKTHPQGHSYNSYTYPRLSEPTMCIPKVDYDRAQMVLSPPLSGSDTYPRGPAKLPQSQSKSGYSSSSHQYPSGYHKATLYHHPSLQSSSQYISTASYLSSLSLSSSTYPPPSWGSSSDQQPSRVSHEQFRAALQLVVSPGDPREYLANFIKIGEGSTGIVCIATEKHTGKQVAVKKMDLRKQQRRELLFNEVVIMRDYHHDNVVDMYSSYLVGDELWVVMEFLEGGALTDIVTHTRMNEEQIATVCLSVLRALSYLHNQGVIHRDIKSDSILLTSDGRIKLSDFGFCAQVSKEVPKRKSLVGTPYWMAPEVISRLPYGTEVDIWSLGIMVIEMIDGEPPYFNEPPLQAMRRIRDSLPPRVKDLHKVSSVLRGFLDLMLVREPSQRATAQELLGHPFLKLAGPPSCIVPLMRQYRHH
T18 sequence (P51812 whole entry): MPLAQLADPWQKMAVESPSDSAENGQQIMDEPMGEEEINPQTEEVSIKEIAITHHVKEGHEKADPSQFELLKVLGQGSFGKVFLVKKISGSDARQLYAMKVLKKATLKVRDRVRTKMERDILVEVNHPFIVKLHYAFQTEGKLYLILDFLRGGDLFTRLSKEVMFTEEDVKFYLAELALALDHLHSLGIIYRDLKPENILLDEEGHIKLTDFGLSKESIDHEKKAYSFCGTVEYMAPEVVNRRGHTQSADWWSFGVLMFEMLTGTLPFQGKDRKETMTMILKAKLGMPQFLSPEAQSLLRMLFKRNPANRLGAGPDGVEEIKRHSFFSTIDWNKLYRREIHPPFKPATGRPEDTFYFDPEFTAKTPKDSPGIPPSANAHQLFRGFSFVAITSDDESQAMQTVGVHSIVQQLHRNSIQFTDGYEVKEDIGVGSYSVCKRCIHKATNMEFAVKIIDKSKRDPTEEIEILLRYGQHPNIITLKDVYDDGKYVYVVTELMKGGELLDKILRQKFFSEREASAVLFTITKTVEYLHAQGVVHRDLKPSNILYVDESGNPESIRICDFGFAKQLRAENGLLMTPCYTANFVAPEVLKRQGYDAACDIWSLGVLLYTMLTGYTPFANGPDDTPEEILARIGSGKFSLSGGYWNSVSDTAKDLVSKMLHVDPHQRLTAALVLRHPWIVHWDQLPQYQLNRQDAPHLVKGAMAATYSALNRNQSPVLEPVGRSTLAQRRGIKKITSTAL
T4 sequence (Q9Y6M4 whole entry): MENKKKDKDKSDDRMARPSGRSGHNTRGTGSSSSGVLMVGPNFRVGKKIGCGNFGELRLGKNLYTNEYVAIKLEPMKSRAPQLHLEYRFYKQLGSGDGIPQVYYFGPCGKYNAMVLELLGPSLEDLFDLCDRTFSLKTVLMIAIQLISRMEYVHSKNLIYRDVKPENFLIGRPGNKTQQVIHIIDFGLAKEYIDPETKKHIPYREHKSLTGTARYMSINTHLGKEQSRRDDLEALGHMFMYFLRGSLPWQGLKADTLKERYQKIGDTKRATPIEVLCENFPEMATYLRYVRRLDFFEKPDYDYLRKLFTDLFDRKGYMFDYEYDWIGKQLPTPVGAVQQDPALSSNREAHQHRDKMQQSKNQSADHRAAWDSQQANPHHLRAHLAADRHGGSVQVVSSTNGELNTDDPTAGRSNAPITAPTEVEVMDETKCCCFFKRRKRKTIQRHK
T8 sequence (O14733 whole entry): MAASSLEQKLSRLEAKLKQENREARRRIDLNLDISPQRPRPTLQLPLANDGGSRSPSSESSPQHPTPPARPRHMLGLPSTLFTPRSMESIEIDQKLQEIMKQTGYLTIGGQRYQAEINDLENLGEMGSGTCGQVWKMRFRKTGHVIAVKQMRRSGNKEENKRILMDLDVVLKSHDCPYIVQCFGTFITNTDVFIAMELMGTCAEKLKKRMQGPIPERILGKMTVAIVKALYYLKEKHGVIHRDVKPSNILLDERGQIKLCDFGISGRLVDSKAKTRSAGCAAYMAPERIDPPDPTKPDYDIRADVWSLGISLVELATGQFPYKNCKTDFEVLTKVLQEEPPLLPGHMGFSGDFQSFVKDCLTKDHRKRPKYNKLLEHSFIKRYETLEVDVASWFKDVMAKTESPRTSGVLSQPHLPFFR
T3 sequence (P78368 whole entry): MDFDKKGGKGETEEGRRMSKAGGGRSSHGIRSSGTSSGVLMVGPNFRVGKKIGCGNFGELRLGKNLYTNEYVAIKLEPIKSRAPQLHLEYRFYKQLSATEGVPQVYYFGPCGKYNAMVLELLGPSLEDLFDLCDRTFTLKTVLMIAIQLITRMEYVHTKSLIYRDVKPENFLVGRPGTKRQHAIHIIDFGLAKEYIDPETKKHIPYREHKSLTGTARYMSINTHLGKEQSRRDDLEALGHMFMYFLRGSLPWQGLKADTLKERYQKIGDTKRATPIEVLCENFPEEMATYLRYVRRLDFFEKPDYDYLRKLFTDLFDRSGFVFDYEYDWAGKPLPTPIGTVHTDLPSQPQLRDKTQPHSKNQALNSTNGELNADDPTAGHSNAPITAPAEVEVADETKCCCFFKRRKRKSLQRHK
T27 sequence (P54764 20-986): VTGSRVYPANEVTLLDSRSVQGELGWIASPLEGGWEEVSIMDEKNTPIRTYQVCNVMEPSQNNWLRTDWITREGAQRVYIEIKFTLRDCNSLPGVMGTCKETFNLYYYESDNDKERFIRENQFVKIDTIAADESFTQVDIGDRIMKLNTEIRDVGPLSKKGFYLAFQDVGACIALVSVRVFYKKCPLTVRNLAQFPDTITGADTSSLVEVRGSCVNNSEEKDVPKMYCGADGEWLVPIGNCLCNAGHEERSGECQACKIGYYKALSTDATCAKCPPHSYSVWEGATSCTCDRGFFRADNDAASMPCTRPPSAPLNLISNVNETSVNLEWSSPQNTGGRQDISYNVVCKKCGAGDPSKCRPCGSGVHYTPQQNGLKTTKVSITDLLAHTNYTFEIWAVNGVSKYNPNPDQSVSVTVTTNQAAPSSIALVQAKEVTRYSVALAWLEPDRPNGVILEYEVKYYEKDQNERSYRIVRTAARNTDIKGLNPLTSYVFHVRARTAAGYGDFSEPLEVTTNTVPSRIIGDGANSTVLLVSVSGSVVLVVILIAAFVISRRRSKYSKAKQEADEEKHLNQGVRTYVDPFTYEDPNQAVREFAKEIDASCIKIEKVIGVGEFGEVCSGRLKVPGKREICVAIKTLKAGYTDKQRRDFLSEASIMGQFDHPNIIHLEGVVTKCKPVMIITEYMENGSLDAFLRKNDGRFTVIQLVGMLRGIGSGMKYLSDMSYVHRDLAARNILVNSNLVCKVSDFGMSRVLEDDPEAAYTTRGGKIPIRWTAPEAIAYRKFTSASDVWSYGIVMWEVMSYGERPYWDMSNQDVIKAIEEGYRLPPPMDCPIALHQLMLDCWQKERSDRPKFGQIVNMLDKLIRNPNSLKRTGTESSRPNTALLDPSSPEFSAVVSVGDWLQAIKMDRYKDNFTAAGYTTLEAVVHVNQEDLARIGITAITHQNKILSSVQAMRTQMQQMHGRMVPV
T22 sequence (Q15418 whole entry): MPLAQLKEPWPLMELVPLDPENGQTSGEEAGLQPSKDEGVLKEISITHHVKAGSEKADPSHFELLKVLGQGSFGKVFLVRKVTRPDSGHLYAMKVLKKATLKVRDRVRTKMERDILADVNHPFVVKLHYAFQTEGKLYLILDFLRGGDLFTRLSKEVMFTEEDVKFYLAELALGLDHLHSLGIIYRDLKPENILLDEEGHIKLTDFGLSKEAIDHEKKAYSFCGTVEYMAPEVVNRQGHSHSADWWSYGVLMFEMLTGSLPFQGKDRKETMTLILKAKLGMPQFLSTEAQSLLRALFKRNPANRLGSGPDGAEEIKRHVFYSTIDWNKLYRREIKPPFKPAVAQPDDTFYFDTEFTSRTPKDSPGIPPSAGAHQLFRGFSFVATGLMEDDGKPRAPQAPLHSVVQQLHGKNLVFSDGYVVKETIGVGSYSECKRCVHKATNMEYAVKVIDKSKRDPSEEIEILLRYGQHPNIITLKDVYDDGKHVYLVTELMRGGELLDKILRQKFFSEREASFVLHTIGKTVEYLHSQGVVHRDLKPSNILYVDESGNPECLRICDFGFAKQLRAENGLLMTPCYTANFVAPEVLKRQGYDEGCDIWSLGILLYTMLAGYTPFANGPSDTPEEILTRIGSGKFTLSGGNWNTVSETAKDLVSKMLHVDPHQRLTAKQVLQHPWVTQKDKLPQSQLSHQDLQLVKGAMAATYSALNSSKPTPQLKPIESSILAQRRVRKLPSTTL

activity at 10 µM (DDR2(h)): 106% | activity at 10 µM (HIPK2(h)): 100% | activity at 10 µM (CK1γ2(h)): 108% | activity at 10 µM (CK1γ3(h)): 104% | activity at 10 µM (BRK(h)): 105% | activity at 10 µM (MKK4(m)): 101% | activity at 10 µM (MELK(h)): 100% | activity at 10 µM (MKK7β(h)): 95% | activity at 10 µM (FGFR4(h)): 87% | activity at 10 µM (FGFR3(h)): 98% | activity at 10 µM (EGFR(L858R)(h)): 107% | activity at 10 µM (DAPK1(h)): 103% | activity at 10 µM (ARK5(h)): 97% | activity at 10 µM (CDK7/cyclinH(h)): 92% | activity at 10 µM (Mer(h)): 109% | activity at 10 µM (NIM1(h)): 121% | activity at 10 µM (EphB2(h)): 98%
SMILES: COc1cc2oc(-c3ccc(O)c(O)c3)cc(=O)c2c(O)c1OC [Cirsiliol]

SMILES: COc1ccc(CCc2cc(OC)c(OC)c(OC)c2)cc1O [Erianin]
pKd (MEK1 full length): 4.16 | activity at 0.1 µM (Rsk2(h)): 106% | activity at 0.1 µM (Pim-2(h)): 103% | activity at 0.1 µM (Fgr(h)): 91% | activity at 0.1 µM (EphB3(h)): 95% | activity at 0.1 µM (Rsk1(h)): 90% | activity at 0.1 µM (ZIPK(h)): 111% | activity at 0.1 µM (MEK2(h)): 83% | activity at 0.1 µM (CaMKIIδ(h)): 103% | activity at 0.1 µM (Rsk3(h)): 108% | activity at 0.1 µM (EphA4(h)): 93%

activity at 10 µM (TAO2(h)): 78% | activity at 10 µM (MST1(h)): 65% | activity at 10 µM (CDK18/cyclinY(h)): 65% | activity at 10 µM (MST2(h)): 54% | activity at 10 µM (NEK1(h)): 77% | activity at 10 µM (TAO1(h)): 64% | activity at 10 µM (CDK12/cyclinK(h)): 98% | activity at 10 µM (PAK5(h)): 98% | activity at 10 µM (ATR/ATRIP(h)): 76%
SMILES: C=C1C(=O)[C@]23[C@H](O)[C@H]1CC[C@H]2[C@@]12CO[C@]3(O)[C@@H](O)[C@@H]1C(C)(C)CC[C@@H]2O [Oridonin]
